Reference: patent US12171226B2, “Development of pheromone assisted techniques to improve efficacy of insecticide sprays targeting urban pest ant species” (The Regents of the University of California, priority 2012, dated 2024)

Assays:
Argentine ants [1] = test: Experiment #1: field attraction of ants from an existing trail to a pheromone-sprayed sand patch; format: in vivo, Linepithema humile
Description: Experiment #1 was conducted to observe would synthetic trail pheromone spray deposit attract the ants from an existing trail? The study was conducted in the biological control grove at the University of California, Riverside, in April 2012. The site supports a large population of Argentine ants, primarily because of the absence of chemical insecticide use and the existence of honeydew-producing insects in the citrus trees. Five different trails of Argentine ants were located, which were relatively straight and at least 30-cm long, and originating from different nests. By using these trails as “existing trails,” tests were performed to see if the “pheromone assisted technique” would attract ants from the existing trails. For the pheromone treatment, two patches of sand were made, one on each side of the existing trail by evenly spreading 52.5 grams (g) of sand in a square (20 by 20 cm). The distance between two patches was about 5 cm. One patch served as a treatment, and the other one served as a control. For the treatment, 1 mg of the synthetic pheromone compound [(Z)-9-hexadecenal] dissolved in 1 ml of ethyl alcohol was mixed with 500 ml of deionized water. […]
Each sand patch was treated with four sprays (each spray targeting 10 by 10 cm areas on one corner). […] The numbers of ants on the 20 by 20-cm sand patches were counted at 2 and 4 min post-treatment using the photographs. […]

Argentine ants [2] = test: Experiment #2: field attraction of ants from nest entrance and nearby trails to a pheromone-sprayed sand patch; format: in vivo, Linepithema humile
Description: Experiment #2 was conducted to observe would synthetic trail pheromone spray deposit attract the ants from a nest entrance and nearby trails? The study was conducted in the biological control grove at the University of California, Riverside, in Apr. 23, 2012. Nest entrances of Argentine ant colonies were located, which had active trails associated with them (one nest entrance per nest). By using the nest entrance and trails associated with the nest entrance, the pheromone assisted technique” was tested to see if it would attract ants from the nest entrance and nearby trails. For the pheromone treatment, two patches were made of sand on both sides of the nest entrance by evenly spreading 52.5 g of sand in a square (20 by 20 cm). The distance between the two patches was about 5 cm. The method and rate of application were identical with those of experiment #1.
Both sand patches were photographed at 1, 2, and 3 min after application of sprays. The study was replicated ten times by using a different nest entrance for each replicate. The numbers of ants on the 20 by 20-cm sand patches were counted at 1, 2, and 3 minute post-treatment using the photographs. The average values were compared between treatment and control with a paired T-test (one-sided, Analytical Software 2008). […]

Argentine ants [3] = test: Experiment #3: laboratory colony mortality after spray applied away from the ant nest; format: in vivo, Linepithema humile; details: 0.01% fipronil and/or approx. 12 ng per cm^2 (Z)-9-hexadecenal; 3 ml on 491 cm^2 sand; colony about 731 ants; n=5-6
Description: Experiment #3 was conducted to observe would co-application of synthetic trail pheromone improve the efficacy of fipronil insecticide spray applied away from the ant nest? A laboratory study was conducted to determine if the efficacy of an insecticide spray (fipronil) can be improved by adding with a synthetic attractant trail pheromone. Argentine ants were collected from a citrus grove (biological control grove) on the University of California, Riverside, campus. Ant nests were excavated from the ground and transported to a laboratory chamber where they were extracted from the soil. Laboratory stock colonies were maintained in plastic boxes (26.5 by 30 by 10 cm) with the inner sides coated with Teflon™ Fluoropolymer resin, type 30, DuPont Polymers) to prevent ants from escaping. Each colony was provided with two or three artificial nests constructed from plaster-filled petri dishes (9 cm in diameter by 1.5 cm in depth) formed with a 5-cm-diameter by 1-cm-deep cylindrical area in the center of the dish to serve as a nesting space. […]
Three different spray preparations were tested: (a) pheromone+fipronil, (b) fipronil only, and (c) pheromone only. […] The dead ants were removed from the colony box and counted daily. […]

[4] = test system: Argentine ant populations; details: relatively large quantities, stand-alone treatment, field; cited from earlier work

Structure (SMILES) | number of ants on treated sand patch relative to control patch (Argentine ants [1]; approx. 12 ng per cm^2, paired T-test P=0.033) | average number of ants on the 20 by 20-cm sand patch (mean±SEM) (Argentine ants [1]; approx. 12 ng per cm^2 on sand, counts at 2 and 4 min post-treatment averaged, 5 replicates, existing trail) | number of ants on treated sand patch relative to control patch (Argentine ants [2]; approx. 12 ng per cm^2, paired T-test P<0.001) | average number of ants on the 20 by 20-cm sand patch (mean±SEM) (Argentine ants [2]; approx. 12 ng per cm^2 on sand, counts at 1, 2 and 3 min post-treatment, 10 replicates, nest entrance and nearby trails) | cumulative number of dead ants at day 7 post-treatment (mean±SEM) (Argentine ants [3]) | impact on Argentine ant populations [4]
CCCCCC/C=C\CCCCCCCC=O [(Z)-9-hexadecenal] | more than two times higher | 10.4±4.0 | more than five times higher | 18.1±3.0 | 65.8±11.0 | negligible impact
N#Cc1nn(-c2c(Cl)cc(C(F)(F)F)cc2Cl)c(N)c1[S+]([O-])C(F)(F)F (stereo not shown) [fipronil only, fipronil] | – | – | – | – | 291±27.1 | –
